# Experimental data from the supplement of paper PMC11061612.
# Assays:
# [1] = compound: O=C(Nc1ccc2[nH]nc(-c3ccncc3)c2c1)[C@@H]1CCN(CC(=O)N2CCN(c3ccc(-c4ncccn4)cc3)CC2)C1; details: max 5 µM
# In short: (§1)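 Plates with 1536 wells received cancer cell lines in 7.5 μl of DMEM/F12 or RPMI containing 10% FBS. After 24 hours at 37°C and 5% CO2, cells were dosed for 72 hours with final DMSO typically 0.2%, and viability was read by CellTiter-Glo 2.0 luminescence scaled between blank-well and DMSO-well means. The single-agent IC50 was taken from a logistic fit of the dose responses made with a non-linear mixed effects model, that logistic curve having two parameters.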
# AZD1775 = compound: C=CCn1c(=O)c2cnc(Nc3ccc(N4CCN(C)CC4)cc3)nc2n1-c1cccc(C(C)(C)O)n1 [AZD1775]; details: max 3 µM
# In short: as §1
# Alisertib = compound: COc1cc(Nc2ncc3c(n2)-c2ccc(Cl)cc2C(c2c(F)cccc2OC)=NC3)ccc1C(=O)O [Alisertib]; details: max 10 µM
# In short: as §1
# AZD4320 = compound: CN(CC[C@H](CSC1=CC=CC=C1)NC2=C(C=C(C=C2)S(=O)(=O)NC(=O)C3=CC=C(C=C3)N4CCC(CC4)[C@H](C5=CC=CC=C5C6=CC=C(C=C6)Cl)O)S(=O)(=O)C(F)(F)F)CCO [AZD4320]; details: max 1 µM
# In short: as §1
# Paclitaxel = compound: CC(=O)O[C@H]1C(=O)[C@@]2(C)[C@H]([C@H](OC(=O)c3ccccc3)[C@]3(O)C[C@H](OC(=O)[C@H](O)[C@@H](NC(=O)c4ccccc4)c4ccccc4)C(C)=C1C3(C)C)[C@]1(OC(C)=O)CO[C@@H]1C[C@@H]2O [Paclitaxel]; details: max 3 µM
# In short: as §1
# AZD6738 = compound: C[C@@H]1COCCN1C2=NC(=NC(=C2)C3(CC3)[S@](=N)(=O)C)C4=C5C=CNC5=NC=C4 [AZD6738]; details: max 10 µM
# In short: as §1
# Crizotinib = compound: C[C@@H](Oc1cc(-c2cnn(C3CCNCC3)c2)cnc1N)c1c(Cl)ccc(F)c1Cl [Crizotinib]; details: max 10 µM
# In short: as §1
# AZD1390 = compound: CC(C)n1c(=O)n(C)c2cnc3cc(F)c(-c4ccc(OCCCN5CCCCC5)nc4)cc3c21 [AZD1390]; details: max 0.3 µM
# In short: as §1
# Etoposide = compound: COc1cc([C@@H]2c3cc4c(cc3[C@@H](O[C@@H]3O[C@@H]5CO[C@@H](C)O[C@H]5[C@H](O)[C@H]3O)[C@H]3COC(=O)[C@H]23)OCO4)cc(OC)c1O [Etoposide]; details: max 10 µM
# In short: as §1
# Olaparib = compound: O=C(c1cc(Cc2n[nH]c(=O)c3ccccc23)ccc1F)N1CCN(C(=O)C2CC2)CC1 [Olaparib]; details: max 10 µM
# In short: as §1
# Prexasertib = compound: COc1cccc(OCCCN)c1-c1cc(Nc2cnc(C#N)cn2)n[nH]1 [Prexasertib]; details: max 1 µM
# In short: as §1
# Palbociclib = compound: CC(=O)c1c(C)c2cnc(Nc3ccc(N4CCNCC4)cn3)nc2n(C2CCCC2)c1=O [Palbociclib]; details: max 10 µM
# In short: as §1
# Savolitinib = compound: C[C@@H](c1ccc2nccn2c1)n1nnc2ncc(-c3cnn(C)c3)nc21 [Savolitinib]; details: max 1 µM
# In short: as §1
# SG3199 = compound: CC1=CN2[C@@H](C1)C=NC3=CC(=C(C=C3C2=O)OC)OCCCCCOC4=C(C=C5C(=C4)N=C[C@@H]6CC(=CN6C5=O)C)OC [SG3199]; details: max 0.001 µM
# In short: as §1
# Carboplatin = compound: C1CC(C1)(C(=O)[O-])C(=O)[O-].N.N.[Pt+2] [Carboplatin]; details: max 10 µM
# In short: as §1
# MK-2206 = compound: NC1(c2ccc(-c3nc4ccn5c(=O)[nH]nc5c4cc3-c3ccccc3)cc2)CCC1 [MK-2206]; details: max 10 µM
# In short: as §1
# 5-Fluorouracil = compound: O=c1[nH]cc(F)c(=O)[nH]1 [5-Fluorouracil]; details: max 20 µM
# In short: as §1
# AZD7648 = compound: Cc1cc2ncnn2cc1Nc1ncc2c(n1)n(C1CCOCC1)c(=O)n2C [AZD7648]; details: max 10 µM
# In short: as §1
# SN-38 = compound: CCc1c2c(nc3ccc(O)cc13)-c1cc3c(c(=O)n1C2)COC(=O)[C@]3(O)CC [SN-38]; details: max 0.3 µM
# In short: as §1
# AZD2811 = compound: CCN(CCO)CCCOc1ccc2c(Nc3cc(CC(=O)Nc4cccc(F)c4)[nH]n3)ncnc2c1 [AZD2811]; details: max 1 µM
# In short: as §1
# Trametinib = compound: CC(=O)Nc1cccc(-n2c(=O)n(C3CC3)c(=O)c3c(Nc4ccc(I)cc4F)n(C)c(=O)c(C)c32)c1 [Trametinib]; details: max 1 µM
# In short: as §1
# Gefitinib = compound: COc1cc2ncnc(Nc3ccc(F)c(Cl)c3)c2cc1OCCCN1CCOCC1 [Gefitinib]; details: max 10 µM
# In short: as §1
# Gemcitabine = compound: Nc1ccn([C@@H]2O[C@H](CO)[C@@H](O)C2(F)F)c(=O)n1 [Gemcitabine]; details: max 0.3 µM
# In short: as §1
# Selumetinib = compound: Cn1cnc2c(F)c(Nc3ccc(Br)cc3Cl)c(C(=O)NOCCO)cc21 [Selumetinib]
# In short: as §1
# AZD8186 = compound: C[C@@H](Nc1cc(F)cc(F)c1)c1cc(C(=O)N(C)C)cc2c(=O)cc(N3CCOCC3)oc12 [AZD8186]
# In short: as §1
# AZD5991 = compound: Cc1c2c(nn1C)CSCc1cc(n(C)n1)CSc1cc(c3ccccc3c1)OCCCc1c(C(=O)O)n(C)c3c-2c(Cl)ccc13 [AZD5991]; details: max 1 µM
# In short: as §1
# Taselisib = compound: Cc1nc(-c2cn3c(n2)-c2ccc(-c4cnn(C(C)(C)C(N)=O)c4)cc2OCC3)n(C(C)C)n1 [Taselisib]; details: max 10 µM
# In short: as §1
# Lapatinib = compound: CS(=O)(=O)CCNCc1ccc(-c2ccc3ncnc(Nc4ccc(OCc5cccc(F)c5)c(Cl)c4)c3c2)o1 [Lapatinib]; details: max 10 µM
# In short: as §1
# AZD5153 = compound: COc1nnc2ccc(N3CCC(c4ccc(OCCN5CCN(C)C(=O)[C@H]5C)cc4)CC3)nn12 [AZD5153]; details: max 1 µM
# In short: as §1
# Venetoclax = compound: CC1(C)CCC(CN2CCN(c3ccc(C(=O)NS(=O)(=O)c4ccc(NCC5CCOCC5)c([N+](=O)[O-])c4)c(Oc4cnc5[nH]ccc5c4)c3)CC2)=C(c2ccc(Cl)cc2)C1 [Venetoclax]; details: max 1 µM
# In short: as §1
# SRA737 = compound: N#Cc1cnc(Nc2cc(NC[C@H]3CNCCO3)c(C(F)(F)F)cn2)cn1 [SRA737]; details: max 10 µM
# In short: as §1
# AZD0156 = compound: CN(C)CCCOc1ccc(-c2ccc3ncc4c(c3c2)n(C2CCOCC2)c(=O)n4C)cn1 [AZD0156]; details: max 3 µM
# In short: as §1
# AZD5363 = compound: C1CN(CCC1(C(=O)N[C@@H](CCO)C2=CC=C(C=C2)Cl)N)C3=NC=NC4=C3C=CN4 [AZD5363]; details: max 10 µM
# In short: as §1
# Doxorubicin = compound: COc1cccc2c1C(=O)c1c(O)c3c(c(O)c1C2=O)C[C@@](O)(C(=O)CO)C[C@@H]3O[C@H]1C[C@H](N)[C@H](O)[C@H](C)O1 [Doxorubicin]; details: max 1 µM
# In short: as §1
# Dasatinib = compound: CC1=C(C(=CC=C1)Cl)NC(=O)C2=CN=C(S2)NC3=CC(=NC(=N3)C)N4CCN(CC4)CCO [Dasatinib]; details: max 2 µM
# In short: as §1
# Capivasertib = compound: C1CN(CCC1(C(=O)N[C@@H](CCO)C2=CC=C(C=C2)Cl)N)C3=NC=NC4=C3C=CN4 [Capivasertib]; details: max 3 µM
# In short: as §1
Cell Line,"IC50, cell viability 72 h [1] [nM]","IC50, cell viability 72 h (AZD1775) [nM]","IC50, cell viability 72 h (Alisertib) [nM]","IC50, cell viability 72 h (AZD4320) [nM]","IC50, cell viability 72 h (Paclitaxel) [nM]","IC50, cell viability 72 h (AZD6738) [nM]","IC50, cell viability 72 h (Crizotinib) [nM]","IC50, cell viability 72 h (AZD1390) [nM]","IC50, cell viability 72 h (Etoposide) [nM]","IC50, cell viability 72 h (Olaparib) [nM]","IC50, cell viability 72 h (Prexasertib) [nM]","IC50, cell viability 72 h (Palbociclib) [nM]","IC50, cell viability 72 h (Savolitinib) [nM]","IC50, cell viability 72 h (SG3199) [nM]","IC50, cell viability 72 h (Carboplatin) [nM]","IC50, cell viability 72 h (MK-2206) [nM]","IC50, cell viability 72 h (5-Fluorouracil) [nM]","IC50, cell viability 72 h (AZD7648) [nM]","IC50, cell viability 72 h (SN-38) [nM]","IC50, cell viability 72 h (AZD2811) [nM]","IC50, cell viability 72 h (Trametinib) [nM]","IC50, cell viability 72 h (Gefitinib) [nM]","IC50, cell viability 72 h (Gemcitabine) [nM]","IC50, cell viability 72 h (Selumetinib; max 10 µM) [nM]","IC50, cell viability 72 h (AZD8186; max 10 µM) [nM]","IC50, cell viability 72 h (AZD5991) [nM]","IC50, cell viability 72 h (Taselisib) [nM]","IC50, cell viability 72 h (Lapatinib) [nM]","IC50, cell viability 72 h (AZD5153) [nM]","IC50, cell viability 72 h (Venetoclax) [nM]","IC50, cell viability 72 h (SRA737) [nM]","IC50, cell viability 72 h (AZD0156) [nM]","IC50, cell viability 72 h (AZD5363) [nM]","IC50, cell viability 72 h (Doxorubicin) [nM]","IC50, cell viability 72 h (Dasatinib) [nM]","IC50, cell viability 72 h (Capivasertib) [nM]","IC50, cell viability 72 h (Selumetinib; max 3 µM) [nM]","IC50, cell viability 72 h (AZD8186; max 3 µM) [nM]"
SW1271 (Small Cell Lung Carcinoma),> 5000,1970,> 10000,> 1000,630,> 10000,> 10000,> 300,> 10000,> 10000,137,> 10000,> 1000,> 1,> 10000,> 10000,> 20000,> 10000,143,> 1000,614,> 10000,> 300,> 10000,> 10000,> 1000,> 10000,> 10000,947,> 1000,> 10000,> 3000,> 10000,> 1000,> 2000,,,
SIMA (Neuroblastoma),,211,,299,,2350,,,,> 10000,7.67,,,> 1,,,,> 10000,3.66,> 1000,,,,,,> 1000,,,,> 1000,,> 3000,,706,,> 3000,> 3000,> 3000
NCI-H2461 (Mesothelioma),> 5000,630,> 10000,> 1000,735,4160,> 10000,> 300,> 10000,> 10000,48.2,> 10000,> 1000,> 1,> 10000,> 10000,> 20000,> 10000,91.8,> 1000,> 1000,> 10000,> 300,> 10000,> 10000,> 1000,6270,> 10000,> 1000,> 1000,> 10000,> 3000,> 10000,379,> 2000,,,
OC-314 (Ovarian Carcinoma),> 5000,671,6230,> 1000,5.9,2610,> 10000,> 300,876,> 10000,39.4,> 10000,> 1000,> 1,> 10000,> 10000,17800,> 10000,8.72,> 1000,> 1000,> 10000,34.4,> 10000,7390,> 1000,1600,> 10000,70.9,> 1000,> 10000,> 3000,> 10000,63.9,205,,,
RPMI-6666 (Non-Cancerous),> 5000,234,406,37.1,3.63,3900,6930,> 300,401,> 10000,5.81,8620,> 1000,> 1,> 10000,4640,3430,> 10000,2.31,469,> 1000,> 10000,5.75,> 10000,1330,731,621,> 10000,154,174,2460,> 3000,2950,58.3,170,,,
SK-OV-3 (Ovarian Carcinoma),> 5000,2450,> 10000,> 1000,732,> 10000,> 10000,> 300,> 10000,> 10000,35.5,> 10000,> 1000,> 1,> 10000,> 10000,> 20000,> 10000,> 300,> 1000,> 1000,> 10000,> 300,> 10000,> 10000,> 1000,2680,> 10000,> 1000,> 1000,> 10000,> 3000,> 10000,> 1000,> 2000,,,
